Experimental data: patent US20260226068A1, “IMIDAZOTRIAZINE IL-17A MODULATORS AND USES THEREOF” (DICE ALPHA, INC., priority 2023, published 2026)

What was measured:
IL-17A/A = biological target: T1, IL-17A/A (Homo sapiens, UniProt Q16552); assay: IL-17A/A HEK-Blue cell assay (SEAP reporter); type: cell-based; conditions: HEK-Blue IL-17A reporter cells, IL17A/A 5 ng/mL, 20 hours, SEAP read at A630; read-out: HEK-Blue IL17AA (IC50 for IL-17A/A inhibition)
T1 construct: purchased Genscript Z03228
T1 sequence (Q16552 24-155): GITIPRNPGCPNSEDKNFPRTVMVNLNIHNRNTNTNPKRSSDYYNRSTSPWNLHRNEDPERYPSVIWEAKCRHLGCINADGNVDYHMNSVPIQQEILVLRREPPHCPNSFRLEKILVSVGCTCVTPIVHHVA

IL-17A/F = biological target: T2, IL-17A/F (Homo sapiens, UniProt Q16552+Q96PD4); assay: IL-17A/F HEK-Blue cell assay (SEAP reporter); type: cell-based; conditions: HEK-Blue IL-17A reporter cells, IL17A/F 5 ng/mL, 20 hours, SEAP read at A630; read-out: HEK-Blue IL17AF (IC50 for IL-17A/F inhibition)
T2 construct: purchased R&D Systems
T2 sequence (Q16552 24-155): T1 sequence (Q16552 24-155)
T2 sequence (Q96PD4 31-163): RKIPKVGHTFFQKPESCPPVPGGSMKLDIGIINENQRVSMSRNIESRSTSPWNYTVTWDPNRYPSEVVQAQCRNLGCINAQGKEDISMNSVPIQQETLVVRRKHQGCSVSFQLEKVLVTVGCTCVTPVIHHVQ

SMILES	IC50 (IL-17A/A) [nM]	IC50 (IL-17A/F) [nM]
CCn1nccc1C(=O)N[C@H](c1cn2nc(C[C@H]3C[C@@H](C(F)(F)F)CNC3=O)c(N3C[C@@H](C)O[C@H](C)C3)nc2n1)C1CCC(F)(F)CC1 [Compound 241, N—((S)-(4,4-difluorocyclohexyl)(3-((2R,6R)-2,6-dimethylmorpholino)-2-(((3R,5R)-2-oxo-5-(trifluoromethyl)piperidin-3-yl)methyl)imidazo[1,2-b][1,2,4]triazin-6-yl)methyl)-1-ethyl-1H-pyrazole-5-carboxamide]	< 100	< 100
CCn1nccc1C(=O)N[C@H](c1cn2nc(C[C@H]3C[C@@H](C(F)(F)F)CNC3=O)c(N(C)C)nc2n1)[C@H]1CCCC(F)(F)C1 [Compound 117, N—((S)—((S)-3,3-difluorocyclohexyl)(3-(dimethylamino)-2-(((3R,5R)-2-oxo-5-(trifluoromethyl)piperidin-3-yl)methyl)imidazo[1,2-b][1,2,4]triazin-6-yl)methyl)-1-ethyl-1H-pyrazole-5-carboxamide]	< 100	100 to 1000
CCn1nccc1C(=O)N[C@H](c1cn2nc(C[C@H]3C[C@@H](C(F)(F)F)CNC3=O)c(C3CCOCC3)nc2n1)[C@@H]1CC[C@@H]2C[C@@H]2CC1 (single isomer, unassigned) [Compound 293]	< 100	< 100
CCn1nccc1C(=O)N[C@H](c1cn2nc(C[C@H]3C[C@@H](C(F)(F)F)CNC3=O)c(C3CCCCN3C)nc2n1)C1CCC(F)(F)CC1 (stereo partly drawn) [Compound 230]	100 to 1000	> 1000
CCn1nccc1C(=O)N[C@H](c1cn2nc(CC3C[C@@H](C(F)(F)F)CNC3=O)c(N3CC4CCC(C3)O4)nc2n1)[C@H]1CC[C@H](C)CC1 (single isomer, unassigned) [Compound 104]	< 100	< 100
CCn1nccc1C(=O)N[C@H](c1cn2nc(C[C@H]3C[C@@H](C(F)(F)F)NC3=O)c(C3CCOCC3)nc2n1)[C@H]1CC[C@H](C)CC1 [Compound 152, 1-ethyl-N—((S)-((1R,4S)-4-methylcyclohexyl)(2-(((3R,5S)-2-oxo-5-(trifluoromethyl)pyrrolidin-3-yl)methyl)-3-(tetrahydro-2H-pyran-4-yl)imidazo[1,2-b][1,2,4]triazin-6-yl)methyl)-1H-pyrazole-5-carboxamide]	< 100	100 to 1000
CCc1nonc1C(=O)N[C@H](c1cn2nc(C[C@H]3C[C@@H](C)CNC3=O)c(C3CCOCC3)nc2n1)C1CCC(F)(F)CC1 [Compound 393]	100 to 1000	> 1000
CCn1nccc1C(=O)N[C@H](c1cn2nc(CC3C[C@@H](C(F)(F)F)CNC3=O)c(N3C[C@@H]4C[C@H]3CO4)nc2n1)C1CCC(F)(F)CC1 (single isomer, unassigned) [Compound 98]	< 100	< 100
CCn1nccc1C(=O)N[C@H](c1cn2nc(CC3C[C@@H](C(F)(F)F)CNC3=O)c(N3CC4CCC(C3)O4)nc2n1)[C@H]1CC[C@H](C)CC1 (single isomer, unassigned) [Compound 105]	< 100	100 to 1000
O=C(N[C@H](c1cn2nc(C[C@H]3C[C@@H](C(F)(F)F)CNC3=O)c(C3CCS(=O)(=O)CC3)nc2n1)C1CCC(F)(F)CC1)c1nonc1C1CC1 [Compound 243, 4-cyclopropyl-N—((S)-(4,4-difluorocyclohexyl)(3-(1,1-dioxidotetrahydro-2H-thiopyran-4-yl)-2-(((3R,5R)-2-oxo-5-(trifluoromethyl)piperidin-3-yl)methyl)imidazo[1,2-b][1,2,4]triazin-6-yl)methyl)-1,2,5-oxadiazole-3-carboxamide]	< 100	> 1000
CCn1nccc1C(=O)N[C@H](c1cn2nc(C[C@H]3C(=O)NC[C@H]4C[C@H]43)c(C3CCOCC3)nc2n1)C1CCC(F)(F)CC1 [Compound 429]	100 to 1000	> 1000
Cc1nonc1C(=O)N[C@H](c1cn2nc(C[C@H]3C[C@H](C)CNC3=O)c(C3CCOCC3)nc2n1)C1CCC(F)(F)CC1 [Compound 398]	100 to 1000	> 1000
CCn1nccc1C(=O)N[C@H](c1cn2nc(C[C@H]3C[C@@H](C(F)(F)F)CNC3=O)c(N3CCN(C)[C@H](C4CC4)C3)nc2n1)C1CCC(F)(F)CC1 (single isomer, unassigned) [Compound 431]	< 100	100 to 1000
CCn1nccc1C(=O)N[C@H](c1cn2nc(CC3C[C@@H](C(F)(F)F)CNC3=O)c(N3C[C@@H]4C[C@H]3CO4)nc2n1)C1CCC(F)(F)CC1 (single isomer, unassigned) [Compound 99]	< 100	> 1000
CCn1nccc1C(=O)N[C@H](c1cn2nc(CC3C[C@@H](C(F)(F)F)CNC3=O)c(N3CCOCC3)nc2n1)C1CCC(F)(F)CC1 (single isomer, unassigned) [Compound 17]	< 100	100 to 1000
CCn1nccc1C(=O)N[C@H](c1cn2nc(C[C@H]3C[C@@H](C(F)(F)F)CNC3=O)c([C@H]3CN(C)CCO3)nc2n1)C1CCC(F)(F)CC1 (single isomer, unassigned) [Compound 382]	< 100	> 1000

Results, then the compound that gave them:

IC50 (IL-17A/A) [nM]	IC50 (IL-17A/F) [nM]	SMILES
100 to 1000	> 1000	CCn1nccc1C(=O)N[C@H](c1cn2nc(CC3C[C@@H](C(F)(F)F)CNC3=O)cnc2n1)C1CCC(F)(F)CC1 (stereo partly drawn) [Compound 24]
< 100	100 to 1000	CC(C)n1nccc1C(=O)N[C@H](c1cn2nc(C[C@H]3C[C@@H](C(F)(F)F)CNC3=O)c(C3CCOC3)nc2n1)C1CCC(F)(F)CC1 (single isomer, unassigned) [Compound 132]
< 100	> 1000	CCn1nccc1C(=O)N[C@H](c1cn2nc(C[C@H]3C[C@@H](C(F)(F)F)CNC3=O)cnc2n1)[C@H]1CC[C@H](C)CC1 [Compound 26]
100 to 1000	> 1000	Cn1nccc1C(=O)N[C@H](c1cn2nc(C[C@H]3C[C@@H](C(F)(F)F)CNC3=O)cnc2n1)C1CCC(F)(F)CC1 [Compound 36]
100 to 1000	> 1000	O=C(N[C@H](c1cn2nc(CC3C[C@@H](C(F)(F)F)CNC3=O)cnc2n1)C1CCC(F)(F)CC1)c1conc1CCF (stereo partly drawn) [Compound 7, N—((S)-(4,4-difluorocyclohexyl)(2-(((5R)-2-oxo-5-(trifluoromethyl)piperidin-3-yl)methyl)imidazo[1,2-b][1,2,4]triazin-6-yl)methyl)-3-(2-fluoroethyl)isoxazole-4-carboxamide]
100 to 1000	> 1000	CCn1nccc1C(=O)N[C@H](c1cn2nc(C[C@H]3C[C@@H](C(F)(F)F)CNC3=O)c(C3CCN(C)C3)nc2n1)C1CCC(F)(F)CC1 (single isomer, unassigned) [Compound 439]
< 100	100 to 1000	CCn1nccc1C(=O)N[C@H](c1cn2nc(C[C@H]3C[C@@H](C(F)(F)F)CNC3=O)c(C3CCOC3)nc2n1)C1CCC(F)(F)CC1 (single isomer, unassigned) [Compound 62]
< 100	> 1000	CCn1nccc1C(=O)N[C@H](c1cn2nc(C[C@H]3C[C@H](C(F)(F)F)CNC3=O)c(C(C)(C)F)nc2n1)C1CCC(F)(F)CC1 [Compound 161, N-((1S)-(4,4-difluorocyclohexyl)(3-(2-fluoropropan-2-yl)-2-(((3R,5S)-2-oxo-5-(trifluoromethyl)piperidin-3-yl)methyl)imidazo[1,2-b][1,2,4]triazin-6-yl)methyl)-1-ethyl-1H-pyrazole-5-carboxamide]
